The target of data set [1] is T1, Recombinant human cathepsin K (Homo sapiens, UniProt P43235).
T1 construct: made in house
T1 sequence (P43235 115-329): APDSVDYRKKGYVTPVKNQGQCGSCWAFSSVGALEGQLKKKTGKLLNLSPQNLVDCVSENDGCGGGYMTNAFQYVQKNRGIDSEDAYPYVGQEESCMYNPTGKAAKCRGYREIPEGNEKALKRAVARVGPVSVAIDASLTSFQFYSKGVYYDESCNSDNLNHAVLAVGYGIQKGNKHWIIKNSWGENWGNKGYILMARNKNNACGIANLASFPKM
Put plainly: Inhibition of cathepsin K activity (Z-Phe-Arg-AMC fluorescence assay). The following applies: 25 uM Z-Phe-Arg-AMC, pH 5.5, 1 hour at 37° C. The data set is classed as biochemical. In a few lines:
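Z-Phe-Arg-AMC at 25 uM in 100 mM Na acetate pH 5.5 with 20 mM cysteine, 5 mM EDTA and 2% final DMSO; reaction started by adding enzyme, then 1 hour at 37° C. Fluorescence read at ex 360/em 460 nm; IC50 is the concentration giving 50% inhibition.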

Data set [2] concerns the target T2, Cathepsin C (Sigma, C8511) (Bos taurus, UniProt Q3ZCJ8).
T2 construct: purchased Sigma C8511
Put plainly: Selectivity study: cathepsin C (Gly-Phe-pNA). Format: biochemical. To be noted: 1 hour at 37° C., read-out: Cathepsins (IC50, nM) C. The procedure: (§1) Test 2: Selectivity Study
(§2) Selectivity study for the compounds of the present invention was performed using cathepsin C (Sigma, C8511), cathepsin G (Calbiochem, 219373), cathepsin H (Calbiochem, 219388), cathepsin L (Calbiochem, 219402), and cathepsin S (Eur. J. Biochem. 236, 558 (1996) as enzyme sources.
Cathepsin C (Sigma, C8511) was dissolved in D.W. buffer (pH 5.5). All inhibitors were prepared in dimethyl sulfoxide (DMSO). In vitro assays for cathepsin C were conducted with Gly-Phe-pNA (Sigma, G-0142) as a substrate. Samples were pre-incubated for 10 minutes at 37° C. Reaction was initiated by the addition of enzyme to samples, which were then incubated for 1 hour at 37° C. The absorbance of p-nitroaniline released was monitored at 405 nm using spectrophotometer.
(§3) The concentrations of the test compounds, which inhibit 50% of cathepsin s C, G, H, L and S activity, are represented as IC50 in Table 2.

Data set [3] has as its target T3, Cathepsin G (Calbiochem, 219373) (Homo sapiens, UniProt P08311).
T3 construct: purchased Calbiochem 219373
T3 sequence (P08311 21-244): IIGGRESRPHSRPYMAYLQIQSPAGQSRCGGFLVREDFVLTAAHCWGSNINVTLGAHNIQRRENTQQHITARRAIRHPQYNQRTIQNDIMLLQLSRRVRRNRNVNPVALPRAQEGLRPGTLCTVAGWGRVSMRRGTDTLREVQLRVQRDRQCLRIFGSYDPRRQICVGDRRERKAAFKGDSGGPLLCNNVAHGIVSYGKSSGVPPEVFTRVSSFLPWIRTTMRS
Put plainly: Selectivity study: cathepsin G (Suc-Ala-Ala-Pro-Phe-pNA). The following applies: 1 hour at 25° C., read-out: Cathepsins (IC50, nM) G. Format: biochemical. The procedure: as §1, §2
Cathepsin G (Calbiochem, 219373) was dissolved in 50 mM NaOAc and 150 mM NaCl buffer (pH 5.5). All inhibitors were prepared in dimethyl sulfoxide (DMSO). In vitro assays for cathepsin G were conducted with Suc-Ala-Ala-Pro-Phe-pNA (Calbiochem, 219407) as a substrate. Samples were pre-incubated for 10 minutes at 25° C. Reaction was initiated by the addition of enzyme to samples, which were then incubated for 1 hour at 25° C. The absorbance of p-nitroaniline released was monitored at 405 nm using spectrophotometer.
as §3

Data set [4] concerns the target T4, Cathepsin H (Calbiochem, 219388) (Homo sapiens, UniProt P09668).
T4 construct: purchased Calbiochem 219388
T4 sequence (P09668 98-335): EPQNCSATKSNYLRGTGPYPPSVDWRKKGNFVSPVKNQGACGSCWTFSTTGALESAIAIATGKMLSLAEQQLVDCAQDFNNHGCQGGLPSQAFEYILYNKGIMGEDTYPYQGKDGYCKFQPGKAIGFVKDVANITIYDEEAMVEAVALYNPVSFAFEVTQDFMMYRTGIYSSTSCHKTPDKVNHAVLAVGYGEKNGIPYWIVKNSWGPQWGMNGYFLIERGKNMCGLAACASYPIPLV
Put plainly: Selectivity study: cathepsin H (L-Arg-pNA). Format: biochemical. The following applies: 1 hour at 40° C., read-out: Cathepsins (IC50, nM) H. As for the experimental part: as §1, §2
Cathepsin H (Calbiochem, 219388) was dissolved in 20 mM NaOAc, 1 mM EDTA-2Na and 100 mM NaCl buffer (pH 4.6). All inhibitors were prepared dimethyl sulfoxide (DMSO). In vitro assays for cathepsin H were conducted with L-Arg-pNA (BACHEM, 1-1160) as a substrate. Samples were pre-incubated for 5 minutes at 40° C. Reaction was initiated by the addition of enzyme to samples, which were then incubated for 1 hour at 40° C. The absorbance of p-nitroaniline released was monitored at 405 nm using spectrophotometer.
as §3

Data set [5] deals with T5, Cathepsin L (Calbiochem, 219402) (Homo sapiens, UniProt P07711).
T5 construct: purchased Calbiochem 219402
Put plainly: Selectivity study: cathepsin L (Z-Phe-Arg-AMC). The following applies: 1 hour at 25° C., read-out: Cathepsins (IC50, nM) L. The data set is classed as biochemical. As for the experimental part:
as §1, §2
Cathepsin L (Calbiochem, 219402) was dissolved in 50 mM NaOAc buffer (pH 5.0). All inhibitors were prepared in dimethyl sulfoxide (DMSO). […] Samples were pre-incubated for 5 minutes at 25° C. Reaction was initiated by the addition of enzyme to samples, which were then incubated for 1 hour at 25° C. The fluorescence of AMC (7-amino-4-methylcoumarin) was monitored at 460 nm (excitation wavelength 360 nm), using fluorescence spectrophotometer.
as §3

Data set [6] has as its target Recombinant human Cathepsin S (Homo sapiens, UniProt P25774). The experiment in a line: Selectivity study: cathepsin S (Z-Val-Val-AMC). The data set is classed as biochemical. The following applies: 30 minutes at 37° C., read-out: Cathepsins (IC50, nM) S. As for the experimental part: as §1, §2
Recombinant human Cathepsin S (Eur. J. Biochem. 236, 558 (1996) was dissolved in 0.1 M NaOAc 1 mM EDTA-4Na buffer (pH 5.5). All inhibitors were prepared in dimethyl sulfoxide (DMSO). In vitro assays for cathepsin S were conducted with Z-Val-Val-AMC (BACHEM, 1-1160) as a substrate. Samples were pre-incubated for 10 minutes at 4° C. Reaction was initiated by the addition of enzyme to samples, which were then incubated for 30 minutes at 37° C. The florescence of AMC (7-amino-4-methylcoumarin) released was monitored at 465 nm (excitation wavelength 360 nm), using fluorescence spectrophotometer.
as §3

T5 sequence (P07711 114-333): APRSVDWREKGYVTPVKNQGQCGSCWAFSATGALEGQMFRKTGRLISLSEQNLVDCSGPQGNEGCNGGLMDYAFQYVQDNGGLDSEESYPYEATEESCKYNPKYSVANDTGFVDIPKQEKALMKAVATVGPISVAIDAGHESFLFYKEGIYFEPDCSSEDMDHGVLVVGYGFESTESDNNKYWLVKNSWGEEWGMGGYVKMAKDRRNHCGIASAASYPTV
Chain of Recombinant human Cathepsin S (P25774 115-331): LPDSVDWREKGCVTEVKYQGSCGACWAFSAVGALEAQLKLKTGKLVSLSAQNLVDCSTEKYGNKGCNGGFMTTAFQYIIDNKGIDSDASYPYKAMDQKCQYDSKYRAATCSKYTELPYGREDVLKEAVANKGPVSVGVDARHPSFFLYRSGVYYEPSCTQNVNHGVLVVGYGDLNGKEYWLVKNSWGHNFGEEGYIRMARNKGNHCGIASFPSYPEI
T2 sequence (Q3ZCJ8 25-463): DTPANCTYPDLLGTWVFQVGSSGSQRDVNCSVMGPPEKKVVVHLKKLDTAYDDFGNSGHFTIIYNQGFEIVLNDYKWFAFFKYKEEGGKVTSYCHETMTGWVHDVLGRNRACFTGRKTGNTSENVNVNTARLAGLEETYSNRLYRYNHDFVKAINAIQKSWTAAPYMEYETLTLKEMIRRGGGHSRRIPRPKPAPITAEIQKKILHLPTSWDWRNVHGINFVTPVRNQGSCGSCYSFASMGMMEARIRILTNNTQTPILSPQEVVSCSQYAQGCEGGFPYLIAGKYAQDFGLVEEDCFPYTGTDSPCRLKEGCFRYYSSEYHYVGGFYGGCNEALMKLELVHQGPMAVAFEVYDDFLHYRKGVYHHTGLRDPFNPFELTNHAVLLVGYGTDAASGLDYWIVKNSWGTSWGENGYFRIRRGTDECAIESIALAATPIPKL

In the case of `CS(=O)(=O)c1ccccc1N1CCC(NC(=O)C2(NC(=O)c3cc4ccccc4o3)CCCCC2)C(=O)C1` (stereo not shown) [Example 1, 4-[N-[1-[N-(benzofuran-2-ylcarbonyl)amino]cyclohexanecarbonyl]amino]-1-(2-methylsulfonylphenyl)piperidin-3-one], the melting point was in the range of 219 to 220 °C. Further, the IC50 in data set [1] stood at 8.17 nM. For the same compound, in data set [2], the IC50 was 382 nM. The IC50 in data set [3] was > 240 nM. The IC50 in data set [4] is > 240 nM. Further, the IC50 in data set [5] came to 138 nM. For the same compound, the IC50 in data set [6] stood at 133 nM.

On to `CC(C)S(=O)(=O)c1ccccc1N1CCC(NC(=O)C2(NC(=O)c3ccco3)CCCCC2)C(=O)C1` (stereo not shown) [Example 80, 4-[N-[1-[N-(furan-2-ylcarbonyl)amino]cyclohexanecarbonyl]amino]-1-(2-isopropylsulfonylphenyl)piperidin-3-one], for which the IC50 in data set [1] was 5.05 nM; in data set [2], > 1000 nM; in data set [3], > 1000 nM; in data set [4], > 1000 nM; in data set [5], 381 nM; in data set [6], 109 nM.

For the compound `CS(=O)(=O)c1cc(F)ccc1N1CCC(NC(=O)C2(NC(=O)c3ccco3)CCCCC2)C(=O)C1` (stereo not shown) [Example 83, 4-[N-[1-[N-(furan-2-ylcarbonyl)amino]cyclohexanecarbonyl]amino]-1-(4-fluoro-2-methylsulfonylphenyl)piperidin-3-one], the IC50 in data set [1] was 2.69 nM; in data set [2] it was > 810 nM; in data set [3], > 810 nM; in data set [4] it was > 810 nM; in data set [5] it was 352 nM; in data set [6], 177 nM.

`COc1ccc(N2CCC(NC(=O)C3(NC(=O)c4ccco4)CCCCC3)C(=O)C2)c(S(C)(=O)=O)c1` (stereo not shown) [Example 84, 4-[N-[1-[N-(furan-2-ylcarbonyl)amino]cyclohexanecarbonyl]amino]-1-(4-methoxy-2-methylsulfonylphenyl)piperidin-3-one]: the concentration for half-maximal inhibition (IC50) in data set [1] was 6.24 nM; in data set [2], > 1000 nM; in data set [3] it was > 1000 nM; in data set [4] it was > 1000 nM; in data set [5], 986 nM; in data set [6], 212 nM.

Consider `CS(=O)(=O)c1cc(F)ccc1N1CCC(NC(=O)C2(NC(=O)c3ccc(F)cc3)CCCCC2)C(=O)C1` (stereo not shown) [Example 147, 4-[N-[1-[N-(4-fluorobenzoyl)amino]cyclohexanecarbonyl]amino]-1-(4-fluoro-2-methanesulfonylphenyl)piperidin-3-one], for which the IC50 in data set [1] is 4.77 nM; in data set [2], > 1000 nM; in data set [3], > 1000 nM; in data set [4], > 1000 nM; in data set [5], 249 nM; in data set [6] it was 214 nM.

Take `COc1ccc(N2CCC(NC(=O)C3(NC(=O)c4ccc(F)cc4)CCCCC3)C(=O)C2)c(S(C)(=O)=O)c1` (stereo not shown) [Example 148, 4-[N-[1-[N-(4-fluorobenzoyl)amino]cyclohexanecarbonyl]amino]-1-(2-methanesulfonyl-4-methoxyphenyl)piperidin-3-one]: the IC50 in data set [1] was 3.12 nM; in data set [2], > 1000 nM; in data set [3] it was > 1000 nM; in data set [4], > 1000 nM; in data set [5] it was 178 nM; in data set [6] it was 141 nM.

(Values after patent publication US7342027B2 (Yuhan Corporation, priority 2002, dated 2008).)
